Assays:
[1] = cited from earlier work
[2] = Solubility of rejuvenating ingredients in acidified deionized water mimicking the stomach
Method: In order to determine the amount of rejuvenating-nutrient that may be completely dissolved in water under conditions similar to that of stomach, the following study was executed: Deionized water was heated to 98° F.-99° F. to mimic the temperature of the human body. Adjustment of pH of the water to 2.7-2.9 was accomplished using hydrochloric acid to effect acidic conditions of the human stomach. […] Water/joints products were placed in a heated water bath with continuous agitation. Solubility of various joints products was compared at 30 minutes, one hour and two hours.
The following data reflect the percentage of product solubilized compared to added concentration at 0 minutes: […]

N[C@H]1C(O)O[C@H](CO)[C@@H](O)[C@@H]1O.O=S(=O)(O)O (some centres unmarked) [glucosamine sulfate]
Clinical improvement of symptoms, persistence ([1]; after discontinuation of oral administration): up to four weeks
Clinical improvement of symptoms, onset ([1]; after oral administration): as early as one week

N[C@H]1C(O)O[C@H](CO)[C@@H](O)[C@@H]1O (some centres unmarked) [GLUCOSAMINE, Glucosamine]
% SOLUBILITY 2 HRS. ([2]; 2 h, pH 2.7): 30%

Chondroitin sulfate
% SOLUBILITY 30 MINS. ([2]; 10% concentration, water 98-99° F., pH 2.7-2.9): 100%
% SOLUBILITY 30 MINS. ([2]; 30% concentration, water 98-99° F., pH 2.7-2.9): 100%
% SOLUBILITY 30 MINS. ([2]; 50% concentration, water 98-99° F., pH 2.7-2.9): 100%
soluble at 50% concentration ([2]; 50% concentration, water 98-99° F., pH 2.7-2.9, time not given): 100%
% SOLUBILITY 30 MINS. ([2]; 70% concentration, water 98-99° F., pH 2.7-2.9): 20%
% SOLUBILITY 1 HR. ([2]; 70% concentration, water 98-99° F., pH 2.7-2.9, one hour): 20%
% SOLUBILITY 2 HRS. ([2]; 70% concentration, water 98-99° F., pH 2.7-2.9, two hours): 20%

CS(C)(=O)=O [MSM, Methyl-Sulfonyl-Methane]
% SOLUBILITY 1 HR. ([2]; 1 h, pH 2.7): 20%
% SOLUBILITY 2 HRS. ([2]; 2 h, pH 2.7): 30%

Gelatin
% SOLUBILITY 1 HR. ([2]; pH 2.7): 10%
% SOLUBILITY 2 HRS. ([2]; pH 2.7): 15%
